This is an account of results in patent US12617783B2, “Heterocyclic GLP-1R agonists” (BIOMEA FUSION, INC., priority 2024, dated 2026).

Like-named read-outs stand apart in the source and are kept apart here.

Data set [1] in a line: Pharmacokinetic analysis in male SD rats. In kind it is in vivo. The following applies: for Oral F: 5.0 mg/kg po vs 1.0 mg/kg iv; for AUC(0-inf) / clearance / half-life / Vd / Cmax / Tmax: Sprague-Dawley (SD), rat, plasma; for Vd: read-out: Vdss; for exposure compared with Orforglipron: same doses (iv 1 mg/kg and po 5 mg/kg). How it is done:
The rats have free access to food and water. Blood samples were collected pre-dose and 0.083, 0.25, 0.5, 1, 2, 4, 8, 24 hours post dose for i.v. administration group. Blood samples were also collected pre-dose and 0.25, 0.5, 1, 2, 4, 8, and 24 hours after administration in orally dosing group.

The nature of a further data set: in vivo. The following applies: male, cynomolgus monkey.
The target in a further data set is T1, human GLP-1R (Homo sapiens, UniProt P43220).
T1 construct: host or cells: HEK293
T1 sequence (P43220 24-463): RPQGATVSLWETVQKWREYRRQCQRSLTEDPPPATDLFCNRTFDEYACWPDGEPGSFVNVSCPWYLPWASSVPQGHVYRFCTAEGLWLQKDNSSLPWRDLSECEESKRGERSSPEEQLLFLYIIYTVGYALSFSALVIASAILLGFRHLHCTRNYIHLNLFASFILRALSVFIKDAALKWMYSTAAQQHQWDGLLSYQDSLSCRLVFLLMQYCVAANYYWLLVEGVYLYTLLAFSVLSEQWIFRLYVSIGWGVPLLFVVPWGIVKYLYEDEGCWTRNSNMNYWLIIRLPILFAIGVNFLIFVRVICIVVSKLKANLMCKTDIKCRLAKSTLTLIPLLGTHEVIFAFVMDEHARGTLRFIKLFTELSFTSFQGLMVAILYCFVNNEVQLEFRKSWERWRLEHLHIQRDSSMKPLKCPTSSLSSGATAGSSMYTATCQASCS
Kind of data set: GLP-1R cAMP assay (Example B1a, HTRF, 30 min at room temperature). The class given is cell-based. The settings on record: for EC50 Ratio: potency ratio of stereoisomer pair (less potent / more potent isomer). In a few lines: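 Competitive HTRF read-out of cAMP after 30 min room-temperature stimulation, BETP absent, of human GLP-1R-HEK293 cells (1,000/well) in HEPES buffer with 500 μM IBMX and 0.1% BSA. Activation normalised to GLP-1(7-37) positive control. EC50 from 4-parameter non-linear regression.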
On the technique in general: cAMP levels reflect the balance of adenylyl cyclase and phosphodiesterase activity.

For data set [2] the following is noted: male, cynomolgus monkey, in vivo.
Description: (§1) Pharmacokinetic Analysis of the Compound 36, Compound 121, Compound 214, and Orforglipron in Cynomolgus Monkeys
(§2) Non naïve male cynomolgus monkeys (n=3 monkeys/group) were fasted overnight and fed 4 hours post dose. Compounds of the present application were formulated in 10% polyethylene glycol 400/10% propylene glycol/80% glycine buffer (100 mM glycine, 64 mM NaOH, pH 10).
(§3) The compound was administered by i.v. infusion for 30 minutes at 0.12 mg/kg (dose volume 1 mL/kg at a speed of 2 mL/kg/h) or orally doses of 0.36 mg/kg. Blood samples were collected pre-dose and 0.25, 0.5 (just before the infusion is stopped), 0.75, 1, 1.5, 2.5, 4, 8, 16, 24 hr post dose for i.v. administration group. Blood samples were also collected pre-dose, 0.5, 1, 2, 3, 4, 8, 16 and 24 hr after administration in orally dosing group.
The subject of data set [3] is islets from a non-diabetic donor. Kind of data set: Glucose-stimulated insulin secretion (GSIS) in non-diabetic donor islets cultured ex vivo. In kind it is cell-based. The settings on record: compared with orforglipron or DMSO. How it is done:
Donor islets cultured ex vivo were assayed for GSIS in the presence of compound 36 (cpd 36), orforglipron or DMSO. Basal insulin secretion, stimulated insulin secretion and secretion index were measured.
Donor islets cultured ex vivo were assayed for GSIS in the presence of compound 214, orforglipron or DMSO. Basal insulin secretion, stimulated insulin secretion and secretion index were measured.

Data set [4] can be described thus: Pharmacokinetic analysis in cynomolgus monkeys.
Description: as §1, §2, §3
The mark [5] stands for this setting: Table 1d, stereoisomer pairs, read-out: EC50.
Setting [6] is: cAMP accumulation in HEK293 expressing human GLP-1R, no BETP, 30 min room temperature (Method B1a, compounds ID 1-609), Table 1, read-out: EC50.
The mark [7] stands for this setting: text to Table 1d, bridge atoms configured into the plane or away from the reader, read-out: potency (EC50).
Where [8] appears, read: male, cynomolgus monkey, plasma, iv, 0.12 mg/kg.
The mark [9] stands for this setting: male, cynomolgus monkey, plasma, po, 0.36 mg/kg.

Description for in vivo: as §1, §2, §3

Broadly, the AUC(0-inf) is total exposure, with the tail of the curve extrapolated. Low values mean less exposure, high ones more exposure. By clearance is commonly meant the volume of plasma or blood freed of the substance per unit of time. A low value points to a low capacity for elimination. In general, half-life refers to the time needed for the level to fall by half in the phase considered. A low value points to fast loss. In general, Cmax refers to the peak of the concentration-time curve. Usually Tmax stands for the time from dosing to the highest level. The EC50 is the concentration giving half of the maximal effect. Turning to `Cc1cc(-n2nc3c(c2-n2ccn(-c4ccc5c(cnn5C)c4F)c2=O)[C@@H]2COC[C@H](C3)N2C(=O)c2cc3cc([C@H]4CCOC(C)(C)C4)ccc3n2[C@@]2(c3noc(=O)[nH]3)C[C@@H]2C)cc(C)c1F` [Compound 121, 3-((1S,2S)-1-(5-((S)-2,2-dimethyltetrahydro-2H-pyran-4-yl)-2-((4R,8S)-3-(3-(4-fluoro-1-methyl-1H-indazol-5-yl)-2-oxo-2,3-dihydro-1H-imidazol-1-yl)-2-(4-fluoro-3,5-dimethylphenyl)-2,4,5,7,8,9-hexahydro-4,8-epiminooxocino [5,4-c]pyrazole-10-carbonyl)-1H-indol-1-yl)-2-methylcyclopropyl)-1,2,4-oxadiazol-5 (4H)-one], in data set [1], the “Oral F” value stood at 54.7% and the “exposure compared with Orforglipron” value was “significant higher exposure”. Moreover, in data set [1] (1.0 mg/kg iv), the AUC(0-inf) turned out to be 3330 ng·h/mL, the clearance was 5.02 mL/min/kg, the half-life was 188 min and the Vd is 1.24 L/kg. Besides, in data set [1] (5.0 mg/kg po), the AUC(0-inf) was found to be 9120 ng·h/mL, the concentration peaked (Cmax) at 923 ng/mL, the Tmax came out at 3.33 h and the half-life was 208 min. In “in vivo” (iv, 0.12 mg/kg), this compound gave an AUC(0-inf) of 182 ng·h/mL, a Vd of 1.66 L/kg, a clearance of 11.4 mL/min/kg and a half-life of 136 min. Also, in “in vivo” (po, 0.36 mg/kg), the AUC(0-inf) came out at 121 ng·h/mL, the Cmax worked out at 28 ng/mL, the Tmax was 2 h and the half-life was 116 min. For the same compound, the “EC50 Ratio” value on human GLP-1R (Table 1d) is listed as more than 122. For the same compound, the EC50 at human GLP-1R (setting [5]) came to 82 nM. Besides, the EC50 at human GLP-1R (setting [6]) is 82 nM. For the same compound, the EC50 at human GLP-1R (setting [7]) is less than 1000 nM. The “Oral F” value in data set [2] is on record as 22.2%.

As to `Cc1cc(-n2nc3c(c2-n2ccn(-c4ccc5c(cnn5C)c4F)c2=O)[C@@H]2CC[C@H](C3)N2C(=O)c2cc3cc([C@H]4CCOC5(CC5)C4)ccc3n2[C@@]2(c3noc(=O)[nH]3)C[C@@H]2C)cc(C)c1F` [Compound 214, 3-((1S,2S)-1-(2-((4S,7R)-3-(3-(4-fluoro-1-methyl-1H-indazol-5-yl)-2-oxo-2,3-dihydro-1H-imidazol-1-yl)-2-(4-fluoro-3,5-dimethylphenyl)-2,4,5,6,7,8-hexahydro-4,7-epiminocyclohepta [c]pyrazole-9-carbonyl)-5-((S)-4-oxaspiro[2.5]octan-7-yl)-1H-indol-1-yl)-2-methylcyclopropyl)-1,2,4-oxadiazol-5 (4H)-one], in data set [1], the “Oral F” value worked out at 32.6% and the “exposure compared with Orforglipron” value is given as “significant higher exposure”. Also, in data set [1] (1.0 mg/kg iv), the AUC(0-inf) was 4640 ng·h/mL, the clearance is 3.68 mL/min/kg, the half-life is 290 min and the Vd was 1.08 L/kg. Besides, in data set [1] (5.0 mg/kg po), the AUC(0-inf) was found to be 7510 ng·h/mL, the peak level (Cmax) was 640 ng/mL, the Tmax is 2.67 h and the half-life is 308 min. In the data set “in vivo” (iv, 0.12 mg/kg), the total exposure AUC(0-inf) is 619 ng·h/mL, the Vd was found to be 0.77 L/kg, the clearance was 3.4 mL/min/kg and the half-life is 220 min. Besides, in the data set “in vivo” (po, 0.36 mg/kg), the AUC(0-inf) is 1000 ng·h/mL, the Cmax was found to be 149 ng/mL, the Tmax was determined as 2 h and the half-life was 214 min. Moreover, at human GLP-1R (Table 1d), the “EC50 Ratio” value is more than 13. For the same compound, the EC50 on human GLP-1R (setting [5]) was determined as 52.3 nM. Moreover, the EC50 at human GLP-1R (setting [6]) is 52.3 nM. Moreover, the EC50 on human GLP-1R (setting [7]) was less than 1000 nM. For the same compound, the “glucose-stimulated insulin secretion in islets from a non-diabetic donor” value in data set [3] was “increases in glucose-stimulated insulin secretion”. Also, the “Oral F” value in data set [2] was 54.0%.

Consider `Cc1cc(-n2nc3c(c2-n2ccn(-c4ccc5c(cnn5C)c4F)c2=O)[C@H](C)N(C(=O)c2cc4cc([C@H]5CCOC(C)(C)C5)ccc4n2[C@@]2(c4noc(=O)[nH]4)C[C@@H]2C)CC3)cc(C)c1F` [Orforglipron, orforglipron, reference compound], for which the “Oral F” value in data set [1] stood at 11.2%. Moreover, in data set [1] (1.0 mg/kg iv), the AUC(0-inf) was determined as 6840 ng·h/mL, the clearance is 2.47 mL/min/kg, the half-life is 488 min and the Vd worked out at 1.42 L/kg. Further, in data set [1] (5.0 mg/kg po), the AUC(0-inf) is 3420 ng·h/mL, the peak level (Cmax) was 240 ng/mL, the Tmax came out at 4 h and the half-life was 446 min. The “Oral F” value in data set [4] (cynomolgus monkeys, 0.36 mg/kg po vs 0.12 mg/kg iv) stood at 29.4%. Besides, in data set [4] (setting [8]), the AUC(0-inf) is 517 ng·h/mL, the Vd turned out to be 0.846 L/kg, the clearance is 3.98 mL/min/kg and the half-life was 222 min. Also, in data set [4] (setting [9]), the AUC(0-inf) was found to be 456 ng·h/mL, the highest level (Cmax) was 79.5 ng/mL, the Tmax was 1.33 h and the half-life is 254 min.
